# Laboratory results: patent US10059699B2, “Tetrahydroquinoline derivatives as bromodomain inhibitors” (GlaxoSmithKline Intellectual Property (No.2) Limited, priority 2014, dated 2018)
# Where two headings read alike, the source gives them in different places.
# How the values were obtained:
# [1] = system: multiple myeloma cells (OPM-2); assay: Cancer cell line proliferation assay, OPM-2; type: cell-based; settings: Homo sapiens, OPM-2 cells, 72 hours, CellTiter Glo, n = 2
# Experimental: (§1) The impact of the compound of Examples 7 and 14 on cancer cell proliferation was determined using patient derived NUT midline carcinoma cells (11060), multiple myeloma cells (OPM-2, DSMZ) and biphenotypic B myelomonocytic leukaemia cells (MV-4-11, ATCC) in a 72 hour proliferation assay. 11060 and OPM-2 cells were maintained in RPMI 1640 medium (Invitrogen) supplemented with 10% HI-FBS (Heat-Inactivated Fetal Bovine Serum, Hyclone) and 2 mM L-glutamine (Invitrogen) at 37° C. and an atmosphere of 5% CO2. MV-4-11 cells were maintained in IMDM media supplemented with 10% HI-FCS, 2 mM L-glutamine, 1× Non-essential amino acids (Invitrogen) and 1× sodium pyruvate (1 mM) (Invitrogen). Cells were diluted to 1.11×10^5 cells/mL and 90 μL/well plated into black sided, clear bottomed 96 well tissue culture plates (Corning), using growth media supplemented with penicillin/streptomycin (Invitrogen). Cells were incubated overnight at 37° C. and in one plate, ATP levels were measured using the CellTiter Glo assay (Promega) according to the manufacturer's instructions, to give a baseline reading (t=0). 3-fold serial dilutions of compounds ranging from 6 mM to 0.3 μM were prepared in 100% DMSO. The DMSO dilution series was diluted 20-fold in growth media before 10 μl of the resulting dilutions were added to the appropriate wells of the remaining cell plates. The final compound concentrations in the wells ranged from 30 μM to 1.5 nM in 0.5% DMSO. Cells were incubated with compounds for 72 hours before assaying for ATP content using CellTiter Glo (t=72). CellTiter Glo data from each t=72 time point was normalised to the relevant t=0 time point data, and expressed as % t=0.
# [2] = system: biphenotypic B myelomonocytic leukaemia cells (MV-4-11); assay: Cancer cell line proliferation assay, MV-4-11; type: cell-based; settings: Homo sapiens, MV4-11, MV-4-11 cells, 72 hours, CellTiter Glo, n = 3
# Experimental: as §1
# [3] = system: NUT midline carcinoma cells (11060); assay: Cancer cell line proliferation assay, 11060; type: cell-based; settings: 11060 cells, 72 hours, CellTiter Glo, n = 3
# Experimental: as §1
# [4] = system: Bromodomains BRD2, BRD3, BRD4 and BRDT; assay: Fluoroligand affinity for mutated vs non-mutated bromodomain; parameters: species or system Human; settings: single residue mutations in the acetyl lysine binding pocket
# Experimental: The binding of the compounds of formulae (I)-(XVI) to Bromodomains BRD2, BRD3, BRD4 and BRDT was assessed using mutated proteins to detect differential binding to either Binding Domain 1 (BD1) or Binding Domain 2 (BD2) on the bromodomain. These single residue mutations in the acetyl lysine binding pocket greatly lower the affinity of the fluoroligand (Reference Compound X) for the mutated domain (>1000 fold selective for the non-mutated domain). Therefore in the final assay conditions, binding of the fluoroligand to the mutated domain cannot be detected and subsequently the assay is suitable to determine the binding of compounds to the single non-mutated bromodomain. […]
# [5] = full curve fit, read-out: Cellular Proliferation: pIC50 (converted)
# [6] = read-out: Cellular Proliferation: gpIC50 (converted)
SMILES,"IC50 [1, 5]","IC50 [1, 6]","IC50 [2, 5]","IC50 [2, 6]","IC50 [3, 5]","IC50 [3, 6]",selectivity for the non-mutated domain over the mutated domain [4]
"CC(=O)N1c2ccc(C(N)=O)cc2[C@H](Nc2ncc(Cl)cn2)[C@@H](C)[C@@H]1C [Example 7, (2S,3R,4R)-1-acetyl-4-((5-chloropyrimidin-2-yl)amino)-2,3-dimethyl-1,2,3,4-tetrahydroquinoline-6-carboxamide]",100 nM,50.1 nM,200 nM,158 nM,631 nM,398 nM,
COc1ccc2c(c1)C(c1ccc(Cl)cc1)=N[C@@H](CC(=O)NCCCCCNC(=O)CCCCCC1(C)/C(=C/C=C/C=C/C3=[N+](CCCCS(=O)(=O)O)c4ccc(S(=O)(=O)O)cc4C3(C)C)N(CCCCS(=O)(=O)[O-])c3ccc(S(=O)(=O)O)cc31)c1nnc(C)n1-2 (stereo partly shown) [Reference Compound X],,,,,,,> 1000 fold
